Measurements taken from patent US20250145628A1, “PYRAZOLOPYRIMIDINES, COMPOSITIONS COMPRISING THEM AND USES THEREOF” (Novo Nordisk A/S, priority 2022, published 2025).
pIC50: −log10 of the molar value.

How the values were obtained:
[1] = biological target: T1, human CB1 receptor (Homo sapiens, UniProt P21554); assay: bioSensAll GAPL-Gi2 BRET biosensor assay (antagonism of CP-55,940); type: cell-based; details: HEK293 cells transfected with hCB1 and GAPL-Gi2 biosensor, EC75 of CP-55,940 (0.1 nM), overnight incubation, read-out: CB1 wt Gi2 IC50
T1 construct: expressed in transfected cells; host or cells: HEK293
T1 sequence (P21554 whole entry): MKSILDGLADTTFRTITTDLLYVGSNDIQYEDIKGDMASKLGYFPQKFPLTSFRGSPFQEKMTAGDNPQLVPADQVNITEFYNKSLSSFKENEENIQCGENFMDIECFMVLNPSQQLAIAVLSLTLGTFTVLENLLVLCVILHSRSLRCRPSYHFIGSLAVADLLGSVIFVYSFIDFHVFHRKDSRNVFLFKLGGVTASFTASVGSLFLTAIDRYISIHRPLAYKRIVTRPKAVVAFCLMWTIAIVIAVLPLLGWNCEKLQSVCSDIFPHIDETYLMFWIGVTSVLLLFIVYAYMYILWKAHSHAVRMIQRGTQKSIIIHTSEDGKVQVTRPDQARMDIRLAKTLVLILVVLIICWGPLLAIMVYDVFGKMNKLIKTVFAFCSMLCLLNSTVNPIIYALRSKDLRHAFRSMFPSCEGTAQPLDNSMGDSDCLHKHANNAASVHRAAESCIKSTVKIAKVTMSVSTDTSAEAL
Protocol: (§1) Using polyethylenimine (PEI) transfection agent, HEK293 cells were transfected in suspension with the human CB1 or CB1b receptor and one of the following bioSensAll® assays: GAPL-Gi2, or β-arrestin plasma membrane (PM) translocation biosensor (+GRK2). Cells were directly seeded in 96-well plates immediately following transfection.
(§2) Cells were incubated with coelenterazine (luciferase substrate) and different test compounds prior to the measurement of BRET signals.
i) GAPL sensors are used to monitor the activation of heterotrimeric G proteins at the plasma membrane upon receptor stimulation. Specifically, these multimolecular BRET sensors detect the plasma membrane recruitment of proteins that interact with active Ga subunits in a G protein family-selective manner. G protein activation following receptor stimulation generally leads to an increase in the BRET signal.
(§3) HEK293 cells were maintained in Dulbecco's Modified Eagle Medium (DMEM) (Wisent; cat #319-030-CL: without sodium pyruvate, with 4.5 g/L glucose, without L-glutamine) supplemented with 1% penicillin-streptomycin (Wisent; cat #450-201-EL) and 2 or 10% fetal bovine serum (Wisent cat #090150).
(§4) HEK293 cells were co-transfected with hCB1 or hCB1b and one of the above-listed bioSensAll® assays. For each transfection condition: • the total amount of transfected DNA was kept constant at 1 μg per mL of cell culture to be transfected; whenever necessary, salmon sperm DNA (Invitrogen, cat #15632011) was used as ‘carrier’ DNA to supplement plasmid DNA (i.e., biosensor and receptor); • the PEI (polyethylenimine 25 kDa linear, PolyScience, cat #23966) to DNA ratio (ug:ug) was fixed at 3:1.
(§5) Transfections were carried out as follows: • DNA and PEI were first diluted separately in 150 mM NaCl. The volume of the diluent in each tube corresponds to 5% of the cell culture volume to be transfected. • Once DNA and PEI were diluted, the PEI-containing solution was added to the DNA solution and the DNA/PEI mixture immediately vortexed for 5 seconds. • The DNA/PEI mixture was incubated for at least 20 minutes at room temperature to allow for the formation of DNA/PEI complexes. • During the incubation, HEK293 cells were detached, counted and re-suspended in culture medium (composition specified above). • At the end of the incubation period, the DNA/PEI mixture was added to the cells. • Cells were finally distributed in 96-well plates (White Opaque 96-well/Microplates, Greiner, cat #655083 or CulturPlate-96, White Opaque 96-well Microplate, PerkinElmer, cat #6005688) at a density of 30 000 cells per well.
(§6) At ˜48 hours post-transfection: • Using 450-Select TS Biotek plate washer, culture medium was aspirated and replaced with 100 μl of Hank's Balanced Salt Solution buffer (HBSS) (Wisent, cat #319-067CL: without red phenol; with sodium bicarbonate, with calcium and magnesium, with HEPES) per well. This process was performed a total of two times (i.e., 2 washes). • After the washing step, the HP D300 digital dispenser (Tecan) was used to inject increasing doses (12) of test compounds (ranging from 0-600 nM) to wells. Three to five minutes later, an EC75 of CP-55,940 (0.1 nM for GAPL-Gi2 assay; 100 nM for β-arrestin PM translocation biosensor (+GRK2)) was added to columns 2-12 of each 96-well plate.
(§7) BRET signals were determined by calculating the ratio of light emitted by GFP-acceptor (515 nm) over light emitted by luciferase-donor (400 nm). All BRET ratios were standardized using the equation below with pre-established BRET values for positive and negative controls. The standardized BRET ratio is referred to as universal BRET (uBRET).
(§8) Resulting dose-response curves were fitted using the four-parameter logistic non-linear regression model in GraphPad Prism 9.

[2] = biological target: T1, human CB1 receptor; assay: bioSensAll β-arrestin plasma membrane translocation BRET biosensor (+GRK2) assay (antagonism of CP-55,940); type: cell-based; details: HEK293 cells transfected with hCB1 and β-arrestin PM translocation biosensor (+GRK2), EC75 of CP-55,940 (100 nM), overnight incubation, read-out: CB1 wt βarr2 IC50
Protocol: as §1, §2
ii) The multimolecular β-arrestin membrane recruitment biosensors allow for real-time spatio-temporal monitoring of β-arrestin 1 and β-arrestin 2 following GPCR activation. Specifically, these β-arrestin sensors were designed to detect the recruitment of proteins to the plasma membrane (β-arrestin PM) with localization to compartment resulting in an increased BRET signal.
as §3, §4, §5, §6, §7, §8

pIC50 [1] | pIC50 [2] | Structure (SMILES)
7.85 | 6.84 | COc1ccccc1-c1nn2c(-c3ccc(C(F)(F)F)cc3)cc(N3CCC[C@H]3CO)nc2c1-c1ccc(Cl)cc1 [Compound 6, [(2S)-1-[3-(4-chlorophenyl)-2-(2-methoxyphenyl)-7-[4-(trifluoromethyl)phenyl]pyrazolo[1,5-a]pyrimidin-5-yl]-pyrrolidin-2-yl]methanol]
7.76 | 6.95 | CN(CP(C)(C)=O)c1cc(N2CCC(C)(C(N)=O)CC2)n2nc(-c3ccccc3Cl)c(-c3ccc(Cl)cc3)c2n1 [Compound 40, 1-[2-(2-chlorophenyl)-3-(4-chlorophenyl)-5-[dimethylphosphorylmethyl (methyl)amino]pyrazolo[1,5-a]pyrimidin-7-yl]-4-methyl-piperidine-4-carboxamide]
8.90 | 8.45 | CC(C)(O)COc1cc(N2CCC(C)(C(N)=O)CC2)n2nc(-c3ccccc3Cl)c(-c3ccc(Cl)cc3)c2n1 [Compound 13, 1-[2-(2-chlorophenyl)-3-(4-chlorophenyl)-5-(2-hydroxy-2-methyl-propoxy)pyrazolo[1,5-a]pyrimidin-7-yl]-4-methyl-piperidine-4-carboxamide]
8.77 | 7.77 | CC(C)Oc1cc(N(C)CCO)nc2c(-c3ccc(Cl)cc3)c(-c3ccccc3Cl)nn12 [Compound 12, 2-[[2-(2-chlorophenyl)-3-(4-chlorophenyl)-7-isopropoxy-pyrazolo[1,5-a]pyrimidin-5-yl]-methyl-amino]ethanol]
8.89 | 8.33 | CC(=O)NC1(C)CCN(c2cc(N(C)CCC(N)=O)nc3c(-c4ccc(Cl)cc4)c(-c4ccccc4Cl)nn23)CC1 [Compound 27, 3-[[7-(4-acetamido-4-methyl-1-piperidyl)-2-(2-chlorophenyl)-3-(4-chlorophenyl)pyrazolo[1,5-a]pyrimidin-5-yl]-methyl-amino]propanamide]
8.04 | 7.60 | CC(C)(O)CNc1cc(N2CCC(C)(C(N)=O)CC2)n2nc(-c3ccccc3Cl)c(-c3ccc(Cl)cc3)c2n1 [Compound 49, 1-[2-(2-chlorophenyl)-3-(4-chlorophenyl)-5-[(2-hydroxy-2-methyl-propyl)amino]pyrazolo[1,5-a]pyrimidin-7-yl]-4-methyl-piperidine-4-carboxamide]
8.39 | 7.97 | OC[C@@H]1CCCN1c1cc(-c2ccc(C(F)(F)F)cc2)n2nc(-c3ccccc3Cl)c(-c3ccc(Cl)cc3)c2n1 [Compound 4, [(2S)-1-[2-(2-chlorophenyl)-3-(4-chlorophenyl)-7-[4-(trifluoromethyl)phenyl]pyrazolo[1,5-a]pyrimidin-5-yl]pyrrolidin-2-yl]methanol]
7.46 | 6.97 | CNC(=O)CCN(C)c1cc(N2CC(CC(N)=O)C2)n2nc(-c3ccccc3Cl)c(-c3ccc(Cl)cc3)c2n1 [Compound 39, 3-[[7-[3-(2-amino-2-oxo-ethyl)azetidin-1-yl]-2-(2-chlorophenyl)-3-(4-chlorophenyl)pyrazolo[1,5-a]pyrimidin-5-yl]-methyl-amino]-N-methyl-propanamide]
8.19 | 7.76 | CN(C)C(=O)CN(C)c1cc(N2CCC(C)(C(N)=O)CC2)n2nc(-c3ccccc3Cl)c(-c3ccc(Cl)cc3)c2n1 [Compound 25, 1-[2-(2-chlorophenyl)-3-(4-chlorophenyl)-5-[[2-(dimethylamino)-2-oxo-ethyl]-methyl-amino]-pyrazolo[1,5-a]pyrimidin-7-yl]-4-methyl-piperidine-4-carboxamide]
8.41 | 7.84 | CCOC1(C(N)=O)CCN(c2cc(N(C)CC(C)(C)O)nc3c(-c4ccc(Cl)cc4)c(-c4ccccc4Cl)nn23)CC1 [Compound 44, 1-[2-(2-chlorophenyl)-3-(4-chlorophenyl)-5-[(2-hydroxy-2-methyl-propyl)-methyl-amino]pyrazolo[1,5-a]pyrimidin-7-yl]-4-ethoxy-piperidine-4-carboxamide]
